Data on 9 compounds can be found in patent publication US20040235830A1, “Substituted cyclohexane derivatives and the use thereof in medicaments for treating cardiovascular diseases” (priority 2000, published 2004).

The subject of this assay is Langendorff rat heart. Put plainly: Langendorff rat heart (isolated perfused heart, coronary perfusion pressure). The settings on record: constant-volume (10 ml/min) coronary perfusion, concentration from which perfusion pressure decreases (= relaxation of the coronary arteries), read-out: Decrease in the perfusion pressure from:
How it is done:
The heart is rapidly removed after opening the chest cavity of anesthetized rats and is introduced into a conventional Langendorff apparatus. The coronary arteries are subjected to constant-volume (10 ml/min) perfusion, and the perfusion pressure arising thereby is recorded via an appropriate pressure transducer. A decrease in the perfusion pressure in this arrangement corresponds to a relaxation of the coronary arteries. At the same time, the pressure developed by the heart during each contraction is measured via a balloon introduced into the left ventricle, and a further pressure transducer. The rate at which the isolated heart beats is found by calculation from the number of contractions per unit time.
Regarding `C[C@H](NC(=O)[C@H]1CCCCC1c1ccc(C(=O)N(C)C(C)(C)c2ccccc2)cc1)c1ccccc1` (stereo in doubt) [Example 177, N-Methyl-N-(1-methyl-1-phenylethyl)-4-[(1R,2S)-2-({[(1S)-1-phenylethyl]-amino}carbonyl)cyclohexyl]benzamide], the minimal effective concentration came out at 0.01 µM.

`O=C(N[C@@H](CO)c1ccccc1)[C@H]1CCCC[C@@H]1c1ccc(CN(C(=O)N2CCCCC2)c2ccccc2)cc1` [Example 1, N-[4-((1S,2S)-2-{[((1R)-2-Hydroxy-1-phenylethyl)amino]carbonyl}cyclohexyl)-benzyl]-N-phenyl-1-piperidinecarboxamide]: the minimal effective concentration amounted to 1 µM.

On to `C[C@H](NC(=O)[C@H]1CCCC[C@@H]1c1ccc(CN(C(=O)N2CCCC2)c2ccccc2)cc1)c1ccccc1` [Example 7], for which the minimal effective concentration is 0.1 µM.

`CN(Cc1ccc([C@H]2CCCC[C@@H]2C(=O)N[C@@H](CO)c2ccccc2)cc1)c1ccccc1` [Example 21]: the minimal effective concentration is 0.001 µM.

Turning to `O=C(NC(CO)c1ccccc1)C1CCCCC1c1ccc(CN(C(=O)Oc2ccccc2)C2CC2)cc1` (stereo not drawn) [Example 40], the minimal effective concentration is 0.01 µM.

`COCCN(Cc1ccc(C2CCCCC2C(=O)NC(CO)c2ccccc2)cc1)C(=O)Nc1ccccc1` (stereo not drawn) [Example 80]: the minimal effective concentration was found to be 1 µM.

As for `C[C@H](NC(=O)[C@H]1CCCC[C@@H]1c1ccc(CN(C)C(C)(C)c2ccccc2)cc1)c1ccccc1` [Example 123, (1S,2S)-2-(4-{[Dimethylbenzyl(methyl)amino]methyl}phenyl)-N-[(1S)-1-phenylethyl]cyclohexanecarboxamide], the minimal effective concentration came out at 0.01 µM.

In the case of `COCC(NC(=O)[C@H]1CCCC[C@@H]1c1ccc(CN(C(=O)Oc2ccccc2)C2CC2)cc1)c1ccccc1` (stereo partly drawn) [Example 168], the minimal effective concentration was 0.01 µM.

On to `C[C@H](NC(=O)[C@H]1CCCC[C@@H]1c1ccc(COc2ccccc2)cc1)c1ccccc1` [Example 210, (1S,2S)-2-(4-[Phenoxymethyl]phenyl)-N-[(1S)-1-phenylethyl]cyclohexane-carboxamide], for which the minimal effective concentration worked out at 0.001 µM.
